Measurements reported in the supplement of paper PMC11551840.

Experiments:
Assay in all cases: IC50 (cell viability, 72 h) (ln(µM))
ORL-215 = system: ORL-215
Description: (§1)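 Discovery screen of OSCC cell lines in 1,536-well plates. Cells were treated 24 h after seeding with 7 concentrations spanning a 1,000-fold half-log range for 72 h, and viability was read by CellTiter-Glo 2.0 and normalised to DMSO (1) and medium-only (0) controls. IC50 comes from a two-parameter logistic nonlinear mixed-effects fit and is reported as natural log of IC50 in µM.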

ORL-174 = system: ORL-174
Description: as §1

ORL-214 = system: ORL-214
Description: as §1

ORL-188 = system: ORL-188
Description: as §1

ORL-156 = system: ORL-156
Description: as §1

ORL-150 = system: ORL-150
Description: as §1

SCC-9 = system: SCC-9
Description: as §1

HSC-4 = system: HSC-4
Description: as §1

HSC-2 = system: HSC-2
Description: as §1

ORL-195 = system: ORL-195
Description: as §1

ORL-115 = system: ORL-115
Description: as §1

ORL-153 = system: ORL-153
Description: as §1

ORL-48 = system: ORL-48
Description: as §1

PE-CA-PJ15 = system: PE-CA-PJ15
Description: as §1

ORL-207 = system: ORL-207
Description: as §1

ORL-166 = system: ORL-166
Description: as §1

SAS = system: SAS
Description: as §1

ORL-136 = system: ORL-136
Description: as §1

ORL-204 = system: ORL-204
Description: as §1

HO-1-u-1 = system: HO-1-u-1
Description: as §1

BICR10 = system: BICR10
Description: as §1

Structure (SMILES)	IC50 (ln) (ORL-215)	IC50 (ln) (ORL-174)	IC50 (ln) (ORL-214)	IC50 (ln) (ORL-188)	IC50 (ln) (ORL-156)	IC50 (ln) (ORL-150)	IC50 (ln) (SCC-9)	IC50 (ln) (HSC-4)	IC50 (ln) (HSC-2)	IC50 (ln) (ORL-195)	IC50 (ln) (ORL-115)	IC50 (ln) (ORL-153)	IC50 (ln) (ORL-48)	IC50 (ln) (PE-CA-PJ15)	IC50 (ln) (ORL-207)	IC50 (ln) (ORL-166)	IC50 (ln) (SAS)	IC50 (ln) (ORL-136)	IC50 (ln) (ORL-204)	IC50 (ln) (HO-1-u-1)	IC50 (ln) (BICR10)
CCc1c2c(nc3ccc(O)cc13)-c1cc3c(c(=O)n1C2)COC(=O)[C@]3(O)CC [SN-38]	-3.53	-3.86	-5.1	-4.81	-2.97	-3.32	-0.268	-4.28	-5.53	-2.3	-1.9	-4.49	-2.86	-2.9	-5.13	-3.75	-5.93	-0.854	-5	-1.5	-1.02
Cc1[nH]c2ccccc2c1CCNCc1ccc(/C=C/C(=O)NO)cc1 [Panobinostat]	-1.39	-2.11	-1.97	-2	-2.16	-1.77	0.43	-0.0634	-1.23	-1.26	0.481	-2.26	-2.37	-0.846	-2.37	-2.65	-1.8	-0.667	-1.01	-1.92	-0.934
COCC[n+]1c2c(n(Cc3cnccn3)c1C)C(=O)c1ccccc1C2=O [Sepantronium bromide]	-3.91	-4.12	-5.54	-4.09	-6.01	-4.45	-6.15	-4.35	-5.94	-2.96	-1.33	-5.11	-6.01	-4.17	-5.9	-2.05	-6.78	-6.45	-3.1	-3.53	-2.2
CC[C@@]1(O)C(=O)OCc2c1cc1n(c2=O)Cc2cc3c(CN(C)C)c(O)ccc3nc2-1 [Topotecan]	-0.991	-1.41	-2.24	-2.17	-0.763	-1.36	1.79	-1.66	-2.93	-0.561	-0.116	-1.49	-0.589	-0.416	-1.86	-1.82	-2.78	1.32	-1.8	-0.253	-0.563
CC(=O)O[C@H]1C(=O)[C@@]2(C)[C@H]([C@H](OC(=O)c3ccccc3)[C@]3(O)C[C@H](OC(=O)[C@H](O)[C@@H](NC(=O)c4ccccc4)c4ccccc4)C(C)=C1C3(C)C)[C@]1(OC(C)=O)CO[C@@H]1C[C@@H]2O [Paclitaxel]	-5.5	-5.25	-5.78	-6.34	-4.99	-6.11	-3.62	-2.73	-5.85	-4.66	-4.44	-4.87	-5.51	-2.85	-5.88	-5.21	-3.47	-2.48	-4.96	-3.72	-4.85
CCNC(=O)c1noc(-c2cc(C(C)C)c(O)cc2O)c1-c1ccc(CN2CCOCC2)cc1 [Luminespib]	-3.76	-4.47	-4.45	-4.38	-3.29	-3.97	-2.72	-2.55	-4.34	-4.03	-1.26	-3.79	-4.29	-2.87	-4.84	-2.05	-3.87	-3.13	-2.64	-4.16	-3.95
CC[C@@]1(O)C(=O)OCc2c1cc1n(c2=O)Cc2cc3ccccc3nc2-1 [Camptothecin]	-2.87	-2.91	-4.76	-3.95	-2.15	-3.04	1.24	-3.06	-4	-2.2	-1.73	-3.34	-2.57	-2.24	-4.09	-3.18	-4.38	-1.37	-3.82	-0.864	-1.45
CO[C@H]1C[C@@H]2CC[C@@H](C)[C@@](O)(O2)C(=O)C(=O)N2CCCC[C@H]2C(=O)O[C@H]([C@H](C)C[C@@H]2CC[C@@H](O)[C@H](OC)C2)CC(=O)[C@H](C)/C=C(\C)[C@@H](O)[C@@H](OC)C(=O)[C@H](C)C[C@H](C)/C=C/C=C/C=C/1C [Rapamycin]	-0.198	-3.89	-4.26	-2.93	-3.47	-1.89	-0.629	-1.49	-2.87	-2.97	-0.458	-2.68	-2.12	-0.663	-3.35	-2.82	-0.895	-2.47	-1.41	-2.71	-2.25
CC[C@@H]1C(=O)N(C)c2cnc(Nc3ccc(C(=O)NC4CCN(C)CC4)cc3OC)nc2N1C1CCCC1 [BI-2536]	-3.45	-2.58	-2.28	-2.94	-2.91	-3.5	0.0591	-1.33	-2.87	-2.26	-2.1	-2.08	-1.8	-0.628	-2.92	-3.02	-1.93	1.66	-0.226	-2.33	-2.78
C/C=C1\NC(=O)[C@H]2CSSCC/C=C/[C@H](CC(=O)N[C@H](C(C)C)C(=O)N2)OC(=O)[C@H](C(C)C)NC1=O [Romidepsin]	-4.27	-5.44	-3.64	-5.03	-4.55	-5.04	-3.68	-2.03	-4.88	-3.85	-3.74	-5.8	-5.62	-3.12	-4.74	-5.72	-4.87	-4.02	-4.13	-5.24	-4.05
COc1ncc(-c2ccc3nccc(-c4ccnnc4)c3c2)cc1NS(=O)(=O)c1ccc(F)cc1F [Omipalisib]	-2.45	-3.91	-3.91	-3.88	-3.31	-4.18	-1.11	-0.985	-4.69	-3.16	-1.58	–	-3.43	-1.36	-3.51	-2.96	-1.24	-2.66	-2.59	-3.13	-2.02
